Our source for the IC50, Kq and Activity values is ChEMBL document CHEMBL4346660, “Cryptolepine and aromathecin based mimics as potent G-quadruplex-binding, DNA-cleavage and anticancer agents: Design, synthesis and DNA targeting-induced apoptosis” (Eur J Med Chem, 2019).

One series relates to NCI-H460. As to the kind of experiment: Antiproliferative activity against human NCI-H460 cells assessed as reduction in cell viability incubated for 48 hrs by MTT assay. It counts as functional, cell-based. The conditions noted are these: NCI-H460, 48 h.
In the next series the test system is L02. As to the kind of experiment: Cytotoxicity against human HL7702 cells assessed as reduction in cell viability incubated for 48 hrs by MTT assay. The series is classed as cell-based. As to conditions: L02, 48 h. (Formazan colour is commonly taken as a measure of viable cells.)
In series [1] the test system is Quadruplex DNA. As to the kind of experiment: Binding affinity to human c-Kit-1 G-quadruplex DNA assessed as Stern-Volmer quenching constant by fluorometric titration assay. The series is classed as nucleic-acid assay.
For series [2], the system named is Quadruplex DNA. As to the kind of experiment: Binding affinity to human Pu27 G-quadruplex DNA at 10 uM incubated for 5 mins by CD spectroscopy. It counts as nucleic-acid assay.
In series [3] the test system is Quadruplex DNA. As to the kind of experiment: Binding affinity to human c-Kit-1 G-quadruplex DNA at 10 uM incubated for 5 mins by CD spectroscopy. It counts as nucleic-acid assay.
In series [4] the test system is MGC-803. As to the kind of experiment: Cell cycle arrest in human MGC803 cells assessed as change in cyclin E2 expression at 0.5 to 2.5 uM incubated for 24 hrs by immunoblot analysis. The series is classed as functional, cell-based.
The test system of series [5] is MGC-803. As to the kind of experiment: Induction of apoptosis in human MGC803 cells assessed as formation of apoptotic bodies at 2.5 uM after 24 hrs by Hoechst 33258 staining-based fluorescence microscopic method. The series is classed as functional, cell-based.
Series [6] relates to MGC-803. As to the kind of experiment: Induction of apoptosis in human MGC803 cells assessed as nuclear condensation at 2.5 uM after 24 hrs by Hoechst 33258 staining-based fluorescence microscopic method. The series is classed as functional, cell-based.
Series [7] deals with MGC-803. As to the kind of experiment: Induction of apoptosis in human MGC803 cells assessed as decrease in Bcl-2 expression at 0.5 to 2.5 uM after 24 hrs by Western blot analysis. The series is classed as functional, cell-based. (In general: In western blotting, separated proteins are transferred to a membrane and probed.)
Series [8] concerns MGC-803. As to the kind of experiment: Induction of apoptosis in human MGC803 cells assessed as increase in cytochrome-c expression at 0.5 to 2.5 uM after 24 hrs by Western blot analysis. It counts as functional, cell-based.
Series [9] deals with MGC-803. As to the kind of experiment: Induction of apoptosis in human MGC803 cells assessed as increase in AIF expression at 0.5 to 2.5 uM after 24 hrs by Western blot analysis. The series is classed as functional, cell-based.
Series [10] deals with MGC-803. As to the kind of experiment: Induction of mitochondrial membrane depolarization in human MGC803 cells at 0.5 uM incubated for 24 hrs by JC-1 dye-based flow cytometric analysis (Rvb 3.37%). It counts as functional. Background: In flow cytometry, cells or beads pass a laser one at a time.
The subject of series [11] is MGC-803. As to the kind of experiment: Induction of apoptosis in human MGC803 cells assessed as increase in intracellular calcium release incubated for 24 hrs by […] AM dye-based flow cytometric analysis. It counts as functional, cell-based.
Series [12] can be described thus: Toxicity in human MGC803 cell xenografted BALB/C mouse assessed as decrease in body weight at 6 to 12 mg/kg, ip administered every other day for 2 weeks measured during compound dosing. As to conditions: in vivo, 336 h. It counts as organism-based.

Structures are written as SMILES. The source made the active and inactive calls. No cut-off for these calls is given here.

As usually defined, the IC50 is the concentration needed to halve the response being measured. For the compound `CN(C)CCCNc1c2c(nc3ccc(F)cc13)-c1ccccc1C2`, the values for the IC50 with NCI-H460 and in the series on L02 were 1960 nM and 1570 nM, respectively. Also, in the series on Quadruplex DNA [1], the Kq worked out at 6.26 ×10⁶ No_unit. Moreover, the outcome in the series with Quadruplex DNA [2], in the series on Quadruplex DNA [3], in the series with MGC-803 [5], with MGC-803 [6], with MGC-803 [7] and with MGC-803 [8] was Active. For the same compound, in the series on MGC-803 [9], the outcome was Active. In addition, in the series on MGC-803 [4], the result was inactive. Besides, the Activity in the series on MGC-803 [10] is 23.6%; in the series on MGC-803 [11], “Dose-dependent effect”; in series [12], “Non-Toxic”.
